Assays:
40 HCC PDO lines [1] = test: 10 μM drug screening, cell viability at 96 h (CellTiter-Glo); type: cell-based, human
Procedure: (§1) FIG. 2A-2E. 10 μM drug screening and IC50 calculation across 40 PDOs from 20 HCC patients. (2A). 10 μM drug screening of omacetaxine and sorafenib, regorafenib, lenvatinib and cabozantinib on 40 PDOs derived from 20 HCC patients. X axis—the 40 PDO lines, Y axis—Cell viability. (2B). IC50 curve of 40 PDO lines, x-axis—omacetaxine dose, Y axis—Relative cell viability. (2C). […] (2D). IC50 distribution of 40 HCC PDOs. X axis—PDO lines, Y axis—IC50 number of omacetaxine for each PDO.
As readout of drug effectiveness, cell viability at 96 hours (h) was measured. White light microscopy images of one of the HCC PDO lines across 129 drugs was prepared. In FIG. 2E, each panel represents the image collected at 96 hours after treatment with each drug, at a concentration of 10 μM. […] To quantify survival, we implemented CellTiter-Glo, a luminescent cell viability assay. A total of 129 readings (one for each drug) was obtained for each of the 40 PDO lines, for a total of […] data points. […] Next, the inventors contrasted the survival of the […] HCC PDO lines when treated with omacetaxine versus current FDA approved drugs for HCC.

40 HCC PDO lines [2] = test: omacetaxine dose response, IC50 across all 40 HCC PDO lines; type: cell-based; settings: Homo sapiens; average of 40 HCC PDO lines; read-out: calculated average IC50 across all 40 HCC PDO lines
Procedure: as §1

HCC 24 = test: IC50 in PDO line; type: cell-based; settings: Homo sapiens
Procedure: (§2) The inventors tested omacetaxine at decreasing concentrations (10 μM, 1 μM, 100 nM, 10 nM and 1 nM) to calculate the half-maximal inhibitory concentration (IC50). […] The IC50 value for each of the 40 HCC PDO lines can be found in Table 2.

HCC 25-2 = test: IC50 in PDO line; type: cell-based; settings: Homo sapiens
Procedure: as §2

HCC 25-3 = test: IC50 in PDO line; type: cell-based; settings: Homo sapiens
Procedure: as §2

HCC 26-2 = test: IC50 in PDO line; type: cell-based; settings: Homo sapiens
Procedure: as §2

HCC 26-3 = test: IC50 in PDO line; type: cell-based; settings: Homo sapiens
Procedure: as §2

HCC 30 = test: IC50 in PDO line; type: cell-based; settings: Homo sapiens
Procedure: as §2

HCC 34-3 = test: IC50 in PDO line; type: cell-based; settings: Homo sapiens
Procedure: as §2

HCC 36-3 = test: IC50 in PDO line; type: cell-based; settings: Homo sapiens
Procedure: as §2

HCC 37 = test: IC50 in PDO line; type: cell-based; settings: Homo sapiens
Procedure: as §2

HCC 57 = test: IC50 in PDO line; type: cell-based; settings: Homo sapiens
Procedure: as §2

HCC 59 = test: IC50 in PDO line; type: cell-based; settings: Homo sapiens
Procedure: as §2

HCC 65-2 = test: IC50 in PDO line; type: cell-based; settings: Homo sapiens
Procedure: as §2

HCC 67-1 = test: IC50 in PDO line; type: cell-based; settings: Homo sapiens
Procedure: as §2

HCC 67-2 = test: IC50 in PDO line; type: cell-based; settings: Homo sapiens
Procedure: as §2

HCC 71-1 = test: IC50 in PDO line; type: cell-based; settings: Homo sapiens
Procedure: as §2

HCC 71-4 = test: IC50 in PDO line; type: cell-based; settings: Homo sapiens
Procedure: as §2

HCC 76 = test: IC50 in PDO line; type: cell-based; settings: Homo sapiens
Procedure: as §2

HCC 80-1 = test: IC50 in PDO line; type: cell-based; settings: Homo sapiens
Procedure: as §2

HCC 80-4 = test: IC50 in PDO line; type: cell-based; settings: Homo sapiens
Procedure: as §2

HCC 83-1 = test: IC50 in PDO line; type: cell-based; settings: Homo sapiens
Procedure: as §2

6 HCC PDO lines = test: cleaved caspase 3 flow cytometry; type: cell-based, human
Procedure: FIG. 5A-5E. Apoptosis analysis of HCC PDOs treated with omacetaxine in vitro. Organoids were plate on 24 well plate, omacetaxine at 700 μM, 350 μM were added to cell culture medium for 96 h. Then cells were collected and subjected to the analysis below. (5A and 5C). Flow cytometry analysis of 4 HCC PDOs apoptosis using Annexin V/7AAD assay. […] (5B and 5D). Flow cytometry analysis of cleaved caspase 3 expression of omacetaxine treated HCC PDOs. […] The effects on proliferation were assessed to elucidate the omacetaxine mechanisms of action. […] To further understand the effects of omacetaxine on cancer cell proliferation and cell cycle, the inventors performed FACS analysis of Ki67 protein. Ki-67 is a nuclear protein expressed in proliferating cells (in all phases of the cell cycle except G0)^22,23. Furthermore, the higher expression of Ki67 has been linked to poorer disease free survival and overall survival in HCC^24. […] As caspase 3 is a key molecule in apoptosis, the inventors measured its activated (cleaved) fragment.

26-3 PDX = test: Cleaved Caspase 3 staining of PDX tumor frozen sections; type: in vivo, NSG mice; settings: omacetaxine treated HCC PDX tumors vs matched controls
Source text: FIG. 8A-8G. Omacetaxine inhibits tumor cell proliferation and increases apoptosis and suppressed HCC oncoprotein expression in vivo. (8A-8D) Immunofluorescent staining of Ki67 and cleaved caspase 3 expression in 26-3 PDX model. 8A-8B show the IF staining pictures, 8C-8D show the relative Ki67 or cleaved caspase 3 positive cell number in omacetaxine treated mice compared with control treatment groups. (8E-8G) Omacetaxine suppressed HCC oncoprotein: c-Myc, Beta-catenin and MET protein expression in 50 HCC PDX treated with Omacetaxine vs control.
To verify the mechanism of omacetaxine target HCC mechanism in vivo, omacetaxine treated HCC PDX tumors, as well as matched controls, were harvested, and frozen section slides were made. […] The difference in apoptosis as well as proliferation was statistically significant (FIGS. 8C and 8D).

[3] = FDA approved dosage, cited from earlier work
PDX50 = test: HCC patient derived xenograft model PDX50
Source text: P<0.001. Error bars represent Mean±standard deviation. Not significant (NS).
The second model, PDX50, was established by directly implanting pieces of the fresh human HCC tumor into NSG mice. After initial implantation, PDX50 is perpetuated similarly to PDX26-3. […] PDX50 is less aggressive—mice continue to be active, to eat and function normally, in spite of very large tumors. Therefore, PDX50 is not ideal for survival determinations.

COC(=O)C[C@](O)(CCCC(C)(C)O)C(=O)O[C@@H]1C(OC)=C[C@]23CCCN2CCc2cc4c(cc2[C@H]13)OCO4 [omacetaxine, omacetaxine mepusuccinate]
survival of HCC PDO lines versus FDA approved HCC drugs (sorafenib, lenvatinib, regorafenib, cabozantinib) (40 HCC PDO lines [1]): significantly more effective than first line HCC drugs (sorafenib and lenvatinib) and second line HCC drugs (regorafenib and cabozantinib | effectiveness in screen (growth inhibited by ≥50%) (40 HCC PDO lines [1]; 96 h): effective across all 40 HCC PDO lines | average HCC PDO survival (40 HCC PDO lines [1]; 96 h, across all 40 HCC PDO lines): 4.2% | IC50 (40 HCC PDO lines [2]): 35.2 nM | IC50 (HCC 24): 148 nM | IC50 (HCC 25-2): 11.7 nM | IC50 (HCC 25-3): 60.1 nM | IC50 (HCC 26-2): 118 nM | IC50 (HCC 26-3): 27.8 nM | IC50 (HCC 30): 50.6 nM | IC50 (HCC 34-3): 37.7 nM | IC50 (HCC 36-3): 80.7 nM | IC50 (HCC 37): 3.52 nM | IC50 (HCC 57): 14.1 nM | IC50 (HCC 59): 21.2 nM | IC50 (HCC 65-2): 7.4 nM | IC50 (HCC 67-1): 4.03 nM | IC50 (HCC 67-2): 12.8 nM | IC50 (HCC 71-1): 7.29 nM | IC50 (HCC 71-4): 9.98 nM | IC50 (HCC 76): 35.5 nM | IC50 (HCC 80-1): 80.1 nM | IC50 (HCC 80-4): 3.18 nM | IC50 (HCC 83-1): 17.7 nM | cleaved caspase 3 (6 HCC PDO lines): induced | apoptosis as quantified by Cleaved Caspase 3 staining (26-3 PDX): increased | infectious complications, share of patients [3]: approximately 5% | main side effects ([3]; patients): hematologic depletion (thrombocytopenia, anemia, and neutropenia) and diarrhea | body mass of mice, treatment vs. control group (PDX50): no difference in the body mass | tumor growth (PDX50; PDX50 mice, treatment applied directly into the tumor): halting of tumor growth
